{"source": "patent US10471057B2", "about": "“Toxic RNA inhibitors self-assembled in situ” (THE SCRIPPS RESEARCH INSTITUTE, priority 2014, dated 2019)", "key": {"r(CUG)exp [1]": {"system": "r(CUG)exp", "assay": "DM1 pre-mRNA splicing defects in patient derived fibroblasts", "format": "cell-based, human", "experimental": "Bioactivity of small molecule dimers was assessed by using DM1 patient derived fibroblasts containing 500 CTG repeats (GM03987) and healthy fibroblasts (GM07492). Cells were grown as monolayers in 12 well plates in growth medium (1×EMEM (Lonza), 10% FBS, 1× glutagro (Corning), 1×MEM non-essential amino acids (Corning) and 1× antibiotic/antimycotic (Corning)). Once cells were ˜80% confluent, they were treated with growth medium containing the compound of interest (10, 1, 0.1 and 0.01 μM 2H-K4NMeS; 100, 10 and 1 nM 2H-K4NMeS-CA-Biotin; 1 μM N3-2H-K4NMeS; 500 nM N3-2H-K4NMeS+500 nM 2H-K4NMeS-Aminohexanoate; 1000, 10 and 0.1 nM N3-2H-K4NMeS-Aak; 250, 100, and 50 nM 2H-K4NMeS-Bleomycin A5). After 48 h the cells were lysed and the total RNA was harvested using a Zymo Quick RNA miniprep kit. An on-column DNA digestion was completed per the manufacturer's recommended protocol. Approximately 150 ng of total RNA was reverse transcribed at 50° C. using 100 units of SuperScript III reverse transcriptase (Life Technologies). Then 20% of the RT reaction was subjected to PCR using GoTaq DNA polymerase (Promega). RT-PCR products were observed after 25 cycles of 95° C. for 30 s, 58° C. for 30 s, 72° C. for 1 min and a final extension at 72° C. for 1 min. The products were separated on an 2% agarose gel ran at 100 V for 1 h in 1×TAE buffer. The products were visualized by staining with ethidium bromide and scanned using a Bio-Rad Gel Doc XR+ imaging system. The RT-PCR primers for the MBNL1 were […]"}, "[2]": {"system": "r(CUG) repeats in 3' UTR of luciferase", "assay": "Translational defect luciferase reporter assay, 800 CTG repeats", "format": "cell-based", "conditions": "cells with long, toxic r(CUG) repeats", "experimental": "(§1) C2C12 cell lines expressing 800 or 0 CTG repeats in the 3′ UTR of luciferase were grown as monolayers in 96-well plates in growth medium (1×DMEM, 10% FBS, 1× glutagro, (Corning) andlX antibiotic/antimycotic (Corning))^[10]. Once the cells were 70% confluent, the click functionalized dimers were added in 100 μL of growth medium (1000 nM N3-2H-K4NMeS and 1000, 10 and 0.1 nM N3-2H-K4NMeS-Aak). Cells were treated with compound for 48 h and then the cell count was normalized using WST-1 reagent (Roche). Then cells were washed with 1×DPBS and lysed by treating with 50 μL of PPBT lysis buffer at room temperature for 10 minutes. Then 50 μL of luciferase substrate was added and luminescence was measured."}, "[3]": {"system": "luciferase reporter without CTG repeats", "assay": "Translational defect luciferase reporter assay, 0 CTG repeats", "format": "cell-based", "experimental": "as §1"}, "r(CUG)exp [4]": {"system": "r(CUG)exp", "assay": "Nuclear foci by FISH in DM1 patient derived fibroblasts", "format": "cell-based, human", "conditions": "48 h", "experimental": "FISH was utilized to determine the effects of small molecule dimers on the formation and disruption of nuclear foci. DM1 patient derived fibroblasts containing 500 CTG repeats (GM03987) were grown to ˜80% confluence in a Mat-Tek 96-well glass bottom plate in growth medium. Cells were treated with the compound of interest for 48 h in growth medium followed by FISH as previously described^6 using 1 ng/μL DY547-2′OMe-(CAG)6. Immunostaining of MBNL1 was completed as previously described^7 using the MB1a antibody (diluted 1:4), which was generously supplied by Prof. Glenn E. Morris (Wolfson Centre for Inherited Neuromuscular Disease^[9]. This was fluorescently labeled using a 1:200 dilution of goat anti-mouse IgG DyLight 488 conjugate. Untreated controls were stained using a 1 μg/μL solution of DAPI in 1×DPBS. Cells were imaged in 1×DPBS using an Olympus FluoView 1000 confocal microscope at 100× magnification."}, "r(CCUG)300": {"system": "r(CCUG)300", "assay": "Disruption of nuclear foci by FISH in DM2 cell culture model", "format": "cell-based", "conditions": "C2C12 cells expressing r(CCUG)300, 72 h treatment; untreated 9±2", "experimental": "FISH was utilized to determine the effects of clickable compounds on the formation of nuclear foci. C2C12 were sub-cultured into Mat-Tek 96-well glass bottom plates in growth medium. After the cells reached 60-70% confluency, each well was transfected with 200 ng of total plasmid using 1 μL of Lipofectamine 2000 according to the manufacturer's standard protocol. Equal amounts of plasmids expressing the DM2 mini-gene^[1] and EGFP, used as a positive marker of transfection, were used. After 5 h, the transfection cocktail was removed and replaced with differentiation medium containing the compound of interest. The cells were treated with compound for 72 h followed by FISH as previously described using 1 ng/μL DY547-2′OMe-(CAGG)5^[6]. Cells were imaged in 1×DPBS using an Olympus FluoView 1000 confocal microscope at 100× magnification."}, "r(CUG)109": {"system": "r(CUG)109", "assay": "In vitro reaction and pull down of small molecule dimers with RNA", "format": "biochemical", "conditions": "rCUG109, GC-based paired RNA and tRNA", "experimental": "Then 30 μL of this slurry were added to each sample and incubated at room temperature for 1 h. Then the samples were centrifuged and the supernatant was transferred to a separate tube. The beads were then washed with 1×PBST and centrifuged. The supernatant was transferred to the tube containing the unbound RNA. The total radioactive counts of bound and unbound RNA were measured by scintillation counting."}, "DMPK mRNA": {"system": "DMPK mRNA", "conditions": "100 nM, 48 h, qRT-PCR of r(CUG)-containing mRNAs", "description": "Target identification of small molecule dimers was assessed using DM1 patient derived fibroblasts containing 500 CTG repeats (GM03987) and healthy fibroblasts (GM07492). Cells were grown as monolayers in 100 mm^2 in growth medium (1×EMEM (Lonza), 10% FBS, 1× glutagro (Corning), 1×MEM non-essential amino acids (Corning) and 1× antibiotic/antimycotic (Corning)). Once cells were 80% confluent, they were treated with growth medium containing the compound of interest (100 nM 2H-K4NMeS-CA-Biotin). After 48 h the cells were lysed and the total RNA was harvested using Trizol reagent (Life Technologies). Approximately 10 of total RNA was incubated with streptavidin-agarose beads (100 Sigma) for 1 h at room temperature. Then the beads were washed with 1×PBS and the bound RNA was eluted by adding 100 μL of 95% formamide, 10 mM EDTA pH 8.2 for 10 min at 60° C. The bound RNA was cleaned up using a Zymo Quick RNA miniprep kit. Approximately 100 ng of RNA was used for RT qScript cDNA synthesis kit (Quanta BioSciences). 10% of the RT reaction was used for real time PCR (qPCR) with SYBR green master mix (Life Technologies) performed on a 7900HT Fast Real-Time PCR System (Applied Biosystems). Monitored rCUG-containing mRNAs DMPK (500 repeats), SUPT20HL1 (17 repeats), CASK (16 repeats), LRP8 (11 repeats), MAP3K4 (11 repeats), SCUBE (7 repeats) and SORCS2 (7 repeats). Quantified by ΔΔCt relative to GAPDH"}, "[5]": {"assay": "Metabolic stability in rat microsomes", "format": "in vitro ADME"}, "r(CUG)exp [6]": {"system": "r(CUG)exp", "assay": "Splicing defects in HSA LR DM1 mouse model", "format": "in vivo", "conditions": "intraperitoneal once per day for 7 days, vastus muscle", "experimental": "All experimental procedures, mouse handling, and husbandry were completed in accordance with the Association for Assessment and Accreditation of Laboratory Animal Care. A mouse model for DM1^[8], HSA^LR in line 20b, was used. HSA^LR mice express human skeletal actin RNA with 250 CUG repeats in the 3′ UTR. Age- and gender-matched HSA^LR mice were injected intraperitoneally with either 100 mg/kg 2H-K4NMe in water or 13.3 mg/kg 2H-K4NMeS for treatment and 0.9% NaCl for control once per day for 7 days. Mice were sacrificed one day after the last injection, and the vastus muscle was obtained. RNA was extracted from the vastus tissue, and cDNA was synthesized as previously described."}}, "note": "“Also recorded” adds a separate entry of the source."}
{"smiles": "C#CC(=O)NCCCCCC(=O)N(CCN(C)C(=O)CCCOc1cccc(-c2nc3ccc(-c4nc5cc(N6CCN(C)CC6)ccc5[nH]4)cc3[nH]2)c1)CC(=O)N(C)[C@@H](C)C(=O)N(C)[C@@H](C)C(=O)N(C)[C@@H](C)C(=O)N(CCCCN(C)C(=O)CCCOc1cccc(-c2nc3ccc(-c4nc5cc(N6CCN(C)CC6)ccc5[nH]4)cc3[nH]2)c1)CC(=O)N(CCCN=[N+]=[N-])CC(N)=O", "note": "[N3-2H-K4NMeS-Aak]", "values": [{"measurement": "improvement of DM1-associated pre-mRNA splicing defects", "setting": "r(CUG)exp [1]; DM1 patient-derived fibroblasts, 10 nM dosage", "value": "> 50", "unit": "%"}, {"measurement": "DMPK translational defect", "setting": "[2]", "value": "improved the DMPK translational defect at nanomolar concentrations"}, {"measurement": "effect on translation in cells without pathogenic repeats", "setting": "[3]", "value": "has no effect on cells that did not have pathogenic repeats"}, {"measurement": "RNA nuclear foci", "setting": "r(CUG)exp [4]", "value": "far fewer foci are observed"}]}
{"smiles": "[N-]=[N+]=NCC1OC(OC2C(N)CC(N)C(OC3OC(CN)C(O)C(O)C3O)C2O)C(O)C(N)C1O", "note": "(centres unmarked) [N3-K]", "values": [{"measurement": "average number of foci per cell", "setting": "r(CCUG)300", "value": "6±2", "unit": "foci per cell"}]}
{"smiles": "C[C@H](NC(=O)[C@H](C)N(C)C(=O)CN(CCN(C)C(=O)CCCOc1cccc(-c2nc3ccc(-c4nc5cc(N6CCN(C)CC6)ccc5[nH]4)cc3[nH]2)c1)C(=O)CN(CCNC(=O)CCCC[C@@H]1SC[C@@H]2NC(=O)N[C@@H]21)C(=O)CCNC(=O)CCCc1ccc(N(CCCl)CCCl)cc1)C(=O)N(C)[C@@H](C)C(=O)N(CCCCN(C)C(=O)CCCOc1cccc(-c2nc3ccc(-c4nc5cc(N6CCN(C)CC6)ccc5[nH]4)cc3[nH]2)c1)CC(N)=O", "note": "[2H-K4NMeS-CA-Biotin]", "values": [{"measurement": "improvement of DM1-associated pre-mRNA splicing defects (in words)", "setting": "r(CUG)exp [1]; cells", "value": "improves DM1-associated pre-mRNA splicing defects in cells"}, {"measurement": "in vitro reaction with RNA targets", "setting": "r(CUG)109", "value": "most effectively reacted with r(CUG)109"}, {"measurement": "RNA targets pulled down (Chem-CLIP)", "setting": "DMPK mRNA", "value": "binds to disease-causing expanded transcripts and not other RNAs with shorter (non-pathogenic length) r(CUG) repeats"}]}
{"smiles": "C[C@@H](C(=O)N(C)[C@@H](C)C(=O)N(C)[C@@H](C)C(=O)N(C)[C@@H](C)C(=O)N(CCCCN(C)C(=O)CCCOc1cccc(-c2nc3ccc(-c4nc5cc(N6CCN(C)CC6)ccc5[nH]4)cc3[nH]2)c1)CC(N)=O)N(C)C(=O)CCCOc1cccc(-c2nc3ccc(-c4nc5cc(N6CCN(C)CC6)ccc5[nH]4)cc3[nH]2)c1", "note": "[2H-K4NMeS]", "values": [{"measurement": "rescue of pre-mRNA splicing defect", "setting": "r(CUG)exp [1]; DM1 patient-derived fibroblasts, concentrations greater than 100 nM", "value": "> 50", "unit": "%"}, {"measurement": "stability in microsomes (in words)", "setting": "[5]", "value": "stable in microsomes; also recorded: stable to rat microsomes"}, {"measurement": "potency at improving Clen1 pre-mRNA splicing defect compared to 2H-K4NMe", "setting": "r(CUG)exp [6]", "value": "> 7", "unit": "fold"}]}
